Results as given in patent US11497756B2, “Treatment regimen for cancers that are insensitive to BCL-2 inhibitors using the MCL-1 inhibitor alvocidib” (Sumitomo Pharma Oncology, Inc., priority 2017, dated 2022).
One block for each molecule: values may come before it.

Assays:
[1] = test system: MCL-1 expression in MV-4-11 cells; assay: MCL-1 protein expression in MV-4-11 cells treated in vitro; type: cell-based
Procedure: MV-4-11 cells were treated with alvocidib in vitro, harvested and analyzed to probe for changes relative to controls. Additionally, other exemplary CDK9 inhibitors (i.e., palbociclib and dinaciclib) were evaluated, along with alvocidib.

OCI-AML3 cells [2] = assay: In vivo tumor growth, immune deficient mice injected with OCI-AML3 cells; conditions: 2.5 mg/kg intraperitoneal, once a day for 21 days, by day 21, FIG. 3
Procedure: Alvocidib was used alone to test in vivo activity in OCI-AML3 cells. […] To test the in vivo activity, immune deficient mice injected with OCI-AML3 cells were treated with 2.5 mg/kg of alvocidib via intraperitoneal injection or 100 mg/kg of Venetoclax/ABT-199 per os (i.e., oral administration). Each treatment (i.e., alvocidib and Venetoclax/ABT-199) was administered once a day for 21 days.

[3] = test system: MCL-1 expression in OCI-AML3 cells; assay: MCL-1 expression in OCI-AML3 cells in vitro; type: cell-based; conditions: multiple time points after treatment, FIG. 4
From the text: MCL-1 expression was decreased in OCI-AML3 cells at multiple time points following treatment with alvocidib (FIG. 4).

HEL cells = assay: Cell viability (CellTiter-Glo) in HEL erythroleukemia cells; type: cell-based; conditions: 72 hours, compared to Venetoclax, FIG. 5
Procedure: (§1) To assess the effects of alvocidib or Venetoclax treatment on leukemic cells, the erythroleukima cell line, HEL, was cultured in RPMI media supplemented with 10% FBS and penicillin/streptomycin. Cell viability was assessed in treated cells using the CellTiter-Glo reagent (Promega), according to manufacturer protocol. Cells were treated in 96-well plates for 72 hours, before being analyzed in a luminescence compatible plate reader. Curve fitting and analysis was performed using Graphpad Prism software.

OPM2 cells = assay: Cell viability (CellTiter-Glo) in OPM2 multiple myeloma cells; type: cell-based; conditions: 72 hours, compared to Venetoclax, FIG. 6
Procedure: as §1, with “multiple myeloma” for “leukemic”, “OPM2 cells were” for “the erythroleukima cell line, HEL, was”

[4] = in vivo; cited from earlier work
OCI-AML3 cells [5] = assay: Sensitivity of OCI-AML3 cells to Venetoclax/ABT-199; type: cell-based; conditions: Homo sapiens, OCI-AML-3

Compound: CN1CC[C@H](c2c(O)cc(O)c3c(=O)cc(-c4ccccc4Cl)oc23)[C@H](O)C1 [alvocidib]
MCL-1 expression ([1]; 24 hour treatment, FIG. 2): decreased MCL-1 expression
impact on MCL-1 protein levels compared with the other CDK9 inhibitors ([1]; 24 hour treatment, FIG. 2): strongest impact on MCL-1 protein levels
MCL-1 expression relative to controls ([1]; alvocidib 0-8 μM, FIG. 1): decreases MCL-1 expression in MV-4-11 in a dose dependent manner
reduction in tumor growth (OCI-AML3 cells [2]): 50%
MCL-1 expression [3]: decreased
cell viability (HEL cells): inhibition of cell viability
cell viability (OPM2 cells): inhibition of cell viability

Compound: CC1(C)CCC(c2ccc(Cl)cc2)=C(CN2CCN(c3ccc(C(=O)NS(=O)(=O)c4ccc(N[C@H](CCN5CCOCC5)CSc5ccccc5)c(S(=O)(=O)C(F)(F)F)c4)cc3)CC2)C1 [navitoclax]
toxicity [4]: toxic due to thrombocytopenia

EC50 (OCI-AML3 cells [5]): 2330 nM
Compound: CC1(C)CCC(CN2CCN(c3ccc(C(=O)NS(=O)(=O)c4ccc(NCC5CCOCC5)c([N+](=O)[O-])c4)c(Oc4cnc5[nH]ccc5c4)c3)CC2)=C(c2ccc(Cl)cc2)C1 [Venetoclax]
